{
  "source": "patent US20140275143A1",
  "about": "“Compositions Comprising An Opioid And An Additional Active Pharmaceutical Ingredient For Rapid Onset And Extended Duration Of Analgesia That May Be Administered Without Regard To Food” (MALLINCKRODT LLC, priority 2013, published 2014)",
  "key": {"[1]": {"assay": "Dose proportionality and linearity of oxycodone (Example 34)", "type": "in vivo, human", "details": "CR OC/APAP; for AUC0-inf vs dose, Slope / AUC0-inf vs dose, y-Intercept / Cmax vs dose, Slope / Cmax vs dose, y-Intercept: linearity; for Dose-normalized AUC0-inf vs dose, Slope / Dose-normalized AUC0-inf vs dose, y-Intercept / Dose-normalized Cmax vs dose, Slope / Dose-normalized Cmax vs dose, y-Intercept: proportionality", "experimental": "Data were pooled from randomized, crossover, single- and multiple-dose studies conducted in healthy adults (aged 18-55 years) to evaluate the dose proportionality and dose linearity of the oxycodone component of CR OC/APAP when administered as 1, 2, or 4 tablets (7.5 mg, 15 mg, or 30 mg oxycodone, respectively). […] (See selected example from Chart No. 1)\nThe following treatments were administered under fasted conditions: • Single-dose studies: 1, 2, or 4 tablets of CR OC/APAP (7.5 mg, 15 mg, or 30 mg oxycodone, respectively) (see selected example from Chart No. 1) administered orally once • Multiple-dose studies: 1 or 2 tablets of CR OC/APAP (7.5 mg or 15 mg oxycodone, respectively) (see selected example from Chart No. 1) administered every 12 hours for 4.5 days (9 doses)\n(§1) One single-dose study (highest dosage) enrolled healthy recreational drug users; all other studies enrolled healthy subjects with specific exclusions for drug use.\n(§2) Area under the plasma oxycodone concentration-time curve from time 0 extrapolated to infinity (AUC0-inf) and maximum plasma concentration (Cmax)) were compared across dose levels of CR OC/APAP. […] For a linear PK system, the measures of exposure, such as maximal blood concentration (Cmax) or area under the curve from 0 to infinity (AUC) on the y-axis, are linearly (i.e., by a straight line) related to dose on the x-axis. Dose proportionality for CR OC/APAP was assessed; dose proportionality occurs when increases in the administered dose are accompanied by proportional increases in a measure of exposure, such as AUC or Cmax.\n(§3) AUC0-inf and Cmax were divided by dose (dose-normalized) for dose proportionality analyses. Dose normalization (calculated as plasma concentration divided by dose) was utilized to compare concentration across different dosage strengths. Dose linearity and proportionality were determined using linear regression of non-transformed data, including 95% confidence intervals (CIs) and 95% prediction limits. Slope, y-intercept, and R^2 were calculated. The slope and the intercept together define the linear relationship between dose and AUC, or dose and Cmax. The coefficient of determination, R^2, represents the proportion of variability in a data set that is accounted for by a statistical model."}, "[2]": {"assay": "Dose proportionality and linearity of acetaminophen (Example 33)", "type": "in vivo, human", "details": "CR OC/APAP; for AUC0-inf vs dose, Slope / AUC0-inf vs dose, y-Intercept / Cmax vs dose, Slope / Cmax vs dose, y-Intercept: linearity; for Dose-normalized AUC0-inf vs dose, Slope / Dose-normalized AUC0-inf vs dose, y-Intercept / Dose-normalized Cmax vs dose, Slope / Dose-normalized Cmax vs dose, y-Intercept: proportionality", "from_the_text": "(See selected example from Chart No. 1)\nas §1\nas §2, with “APAP” for “oxycodone”\nas §3"}},
  "data": [
    {"smiles": "COc1ccc2c3c1O[C@H]1C(=O)CC[C@@]4(O)[C@@H](C2)N(C)CC[C@]314", "note": "[Oxycodone]", "values": [
      {"measurement": "AUC0-inf vs dose, Slope", "setting": "[1]; Multiple-Dose", "value": 14.151},
      {"measurement": "AUC0-inf vs dose, y-Intercept", "setting": "[1]; Multiple-Dose", "value": "−3.774"},
      {"measurement": "Cmax vs dose, Slope", "setting": "[1]; Multiple-Dose", "value": 1.640},
      {"measurement": "Cmax vs dose, y-Intercept", "setting": "[1]; Multiple-Dose", "value": 0.362},
      {"measurement": "AUC0-inf vs dose, Slope", "setting": "[1]; Single-Dose", "value": 11.093},
      {"measurement": "AUC0-inf vs dose, y-Intercept", "setting": "[1]; Single-Dose", "value": 7.202},
      {"measurement": "Cmax vs dose, Slope", "setting": "[1]; Single-Dose", "value": 1.050},
      {"measurement": "Cmax vs dose, y-Intercept", "setting": "[1]; Single-Dose", "value": "−0.417"},
      {"measurement": "Dose-normalized AUC0-inf vs dose, Slope", "setting": "[1]; Multiple-Dose", "value": 0.033},
      {"measurement": "Dose-normalized AUC0-inf vs dose, y-Intercept", "setting": "[1]; Multiple-Dose", "value": 13.397},
      {"measurement": "Dose-normalized Cmax vs dose, Slope", "setting": "[1]; Multiple-Dose", "value": "−0.003"},
      {"measurement": "Dose-normalized Cmax vs dose, y-Intercept", "setting": "[1]; Multiple-Dose", "value": 1.712},
      {"measurement": "Dose-normalized AUC0-inf vs dose, Slope", "setting": "[1]; Single-Dose", "value": "−0.024"},
      {"measurement": "Dose-normalized AUC0-inf vs dose, y-Intercept", "setting": "[1]; Single-Dose", "value": 12.015},
      {"measurement": "Dose-normalized Cmax vs dose, Slope", "setting": "[1]; Single-Dose", "value": "−0.001"},
      {"measurement": "Dose-normalized Cmax vs dose, y-Intercept", "setting": "[1]; Single-Dose", "value": 1.041}
    ]},
    {"smiles": "CC(=O)Nc1ccc(O)cc1", "note": "[acetaminophen]", "values": [
      {"measurement": "AUC0-inf vs dose, Slope", "setting": "[2]; Multiple-Dose", "value": 40.177},
      {"measurement": "AUC0-inf vs dose, y-Intercept", "setting": "[2]; Multiple-Dose", "value": 2249.134},
      {"measurement": "Cmax vs dose, Slope", "setting": "[2]; Multiple-Dose", "value": 7.079},
      {"measurement": "Cmax vs dose, y-Intercept", "setting": "[2]; Multiple-Dose", "value": 816.140},
      {"measurement": "AUC0-inf vs dose, Slope", "setting": "[2]; Single-Dose", "value": 41.021},
      {"measurement": "AUC0-inf vs dose, y-Intercept", "setting": "[2]; Single-Dose", "value": 4024.292},
      {"measurement": "Cmax vs dose, Slope", "setting": "[2]; Single-Dose", "value": 6.336},
      {"measurement": "Cmax vs dose, y-Intercept", "setting": "[2]; Single-Dose", "value": 467.019},
      {"measurement": "Dose-normalized AUC0-inf vs dose, Slope", "setting": "[2]; Multiple-Dose", "value": "−0.011"},
      {"measurement": "Dose-normalized AUC0-inf vs dose, y-Intercept", "setting": "[2]; Multiple-Dose", "value": 50.557},
      {"measurement": "Dose-normalized Cmax vs dose, Slope", "setting": "[2]; Multiple-Dose", "value": "−0.004"},
      {"measurement": "Dose-normalized Cmax vs dose, y-Intercept", "setting": "[2]; Multiple-Dose", "value": 10.845},
      {"measurement": "Dose-normalized AUC0-inf vs dose, Slope", "setting": "[2]; Single-Dose", "value": "−0.007"},
      {"measurement": "Dose-normalized AUC0-inf vs dose, y-Intercept", "setting": "[2]; Single-Dose", "value": 52.943},
      {"measurement": "Dose-normalized Cmax vs dose, Slope", "setting": "[2]; Single-Dose", "value": "−0.001"},
      {"measurement": "Dose-normalized Cmax vs dose, y-Intercept", "setting": "[2]; Single-Dose", "value": 7.877}
    ]}
  ]
}
